{
  "source": "paper PMC6109075",
  "about": "“Characterization of membrane penetration and cytotoxicity of C9orf72-encoding arginine-rich dipeptides” (Scientific Reports, 2018)",
  "key": {"EGFR (Homo sapiens)": {"molecular_target": "EGFR (Homo sapiens) (UniProt P00533)", "conditions": "cited from earlier work"}, "NSC34 cells [1]": {"tested_on": "NSC34 cells", "experiment": "LDH release assay in NSC34 cells", "format": "cell-based, mouse", "conditions": "24 hr, N = 6", "experimental": "LDH assay was performed with Cytotoxicity LDH Assay Kit-WST from Wako (Japan) following the manufacture’s protocol. Briefly, mouse neuronal NSC34 cells or human fibroblasts were plated on a 96-well plate at 2 × 10^4 cells/well and then treated with the indicated concentration of peptide for 24 hr (NSC34 cells) or 48 hr (fibroblasts) before measurement of LDH release. The absorbance was measured by iMark microplate absorbance reader (Biorad)."}, "[2]": {"experiment": "Functional assay of (PR)12 stability after incubation in culture medium", "format": "in vitro ADME", "conditions": "20 µM (PR)12-FITC, 2 hr with live HEK293 cells in DMEM-10%FBS, conditioned medium transferred to fixed/permeabilized HEK293 cells, read-out nucleolar accumulation"}, "[3]": {"experiment": "Peptides absorption assay (buffer / octanol containing oleic acid)", "format": "physicochemical", "conditions": "FITC-labeled peptide, buffers of different pH vs octanol containing 1% oleic acid (v/v), vortexed 5 min, fluorescence", "experimental": "All buffers used for the peptide absorption assay were prepared with 140 mM NaCl, 2.5 mM KCl, 5 mM HEPES, 5 mM glycine, and the final pH was adjusted with NaOH or HCl.\nThe assay to show the effect of pH in peptides absorption into a hydrophobic phase was performed as previously reported. […] Fifty microliter of the buffer-peptide mix and 50 μl of octanol containing 1% of oleic acid (OA) (v/v) were placed into a microtubes and vortexed for 5 min, followed by centrifugation at 2200 g briefly to separate the octanol phase and buffer phase. After separation, octanol phase containing OA and absorbed peptides were collected and the fluorescence was measured by a plate reader TECAN infinite F200 (Mannedorf, Switzerland)."}, "HEK293 cells": {"tested_on": "HEK293 cells", "experiment": "Confocal imaging of live or fixed/permeabilized HEK293 cells treated with FITC-labeled CPPs", "format": "cell-based, human", "conditions": "for entry into fixed/permeabilized cells: HEK293 cells after fixation/permeabilization, 10 μM FITC-peptide", "experimental": "HEK293 cells were treated with 10 μM of FITC-labeled CPPs for 1 hr in combination with Nucblue live dye and then washed with PBS twice. The images were obtained by FV10 confocal microscopy (Olympus, Japan) or LSM710 confocal microscopy (Zeiss, Germany).\nFor RNAse A treatment, the HEK293 cells, fixed and permeabilized, were incubated with 10 μg/ml of recombinant RNAse A for 1 hr at 37 °C, followed by treatment with 10 μM of FITC-labeled peptides for 30 min. The cells were then washed with PBS twice and imaged with a confocal microscopy."}, "NSC34 cells [4]": {"tested_on": "NSC34 cells", "experiment": "Cytotox glo assay in NSC34 cells", "format": "cell-based, mouse", "conditions": "24 hr, N = 6", "source_text": "Anti-B23/nucleophosmin antibody was purchased from Cell signaling technology (Danvers, MA). RNAse A was obtained from Qiagen (Hilden, Germany). 1-Step Human Coupled IVT kit, oleic acid, poly-A RNA, Prolong Gold with DAPI and Nucblue live reagent were purchased from ThermoFisher Scientific (Waltham, MA). Cytotoxicity LDH Assay Kit-WST and octanol were obtained from Wako pure chemicals (Japan). Cell Titer-Glo and Cell-tox glo kits were purchased from Promega (Madison, WI). TAMRA-labeled random 15mer RNA was synthesized by Fasmac (Japan). Anti-puromycin antibody was purchased from Millipore."}, "NSC34 cells [5]": {"tested_on": "NSC34 cells", "experiment": "Penetration of FITC-conjugated DRPs into NSC34 cells", "format": "cell-based, mouse", "conditions": "fluorescence intensity"}, "Hela cells": {"tested_on": "Hela cells", "experiment": "Peptide penetration assay, Hela cells at different pH (imaging)", "format": "cell-based, human", "conditions": "PBS pH6.0, pH7.4, pH8.0, 2 μM FITC-peptide, 1 hr", "experimental": "For imaging, Hela cells were washed twice with phosphate buffered saline (PBS) (pH7.4) and then incubated with PBS of different pH (pH6.0, pH7.4 and pH8.0) containing 2 μM of FITC-(PR)20 or FITC-R12 for 1 hr, followed by washing with PBS twice. For quantification, HEK293 cells were incubated with 10 μM FITC-(PR)20 in 10% FBS-DMEM for 30 min at 4 °C or 37 °C. The cells were washed twice with PBS and then re-suspended in PBS. The fluorescent signal was measured by a plate reader TECAN infinite F200."}, "[6]": {"tested_on": "protein translation (Hela cell lysates)", "experiment": "In vitro translation (IVT) assay, turboGFP fluorescence", "format": "biochemical, human", "conditions": "cell-free IVT, 100 μM peptide, turboGFP cDNA and Hela cell lysates, 37 °C, read every 1 min, N = 3", "experimental": "IVT assay was performed with 1-step Human-Coupled IVT kit (ThermoFisher) following manufacturer’s protocol. Briefly, turboGFP cDNA and Hela cell lysates were mixed in a 96 white-well PCR plate in the presence or absence of 100 μM of each peptide and incubated at 37 °C. The fluorescence from translated turboGFP was measured by LightCycler (Roche lifescience) every 1 min."}},
  "note": "Entries after “also recorded” stand apart in the source; their conditions may differ. Ends that are not written are not given here. Peptide text beside a SMILES is read from it.",
  "data": [
    {"compound": "GE11", "values": [
      {"measurement": "Kd", "setting": "EGFR (Homo sapiens)", "value": 0.022, "unit": "µM"}
    ]},
    {"compound": "PRPRPRPRPRPRPRPRPRPRPRPR [(PR)12]", "values": [
      {"measurement": "cytotoxicity, LDH release", "setting": "NSC34 cells [1]", "value": "did not show cytotoxicity"},
      {"measurement": "stability in the culture medium", "setting": "[2]", "value": "stable in the culture medium"}
    ]},
    {"compound": "human insulin: FITC-labeled recombinant human insulin (51 a.a.), non-permeable, from Sigma", "values": [
      {"measurement": "effect of pH on absorption of peptide into the octanol phase", "setting": "[3]", "value": "did not enhance the absorption"}
    ]},
    {"compound": "N=C(N)NCCC[C@H](NC(=O)[C@@H]1CCCN1C(=O)[C@H](CCCNC(=N)N)NC(=O)[C@@H]1CCCN1C(=O)[C@H](CCCNC(=N)N)NC(=O)[C@@H]1CCCN1C(=O)[C@H](CCCNC(=N)N)NC(=O)[C@@H]1CCCN1C(=O)[C@H](CCCNC(=N)N)NC(=O)[C@@H]1CCCN1C(=O)[C@H](CCCNC(=N)N)NC(=O)[C@@H]1CCCN1C(=O)[C@H](CCCNC(=N)N)NC(=O)[C@@H]1CCCN1C(=O)[C@H](CCCNC(=N)N)NC(=O)[C@@H]1CCCN1C(=O)[C@H](CCCNC(=N)N)NC(=O)[C@@H]1CCCN1C(=O)[C@H](CCCNC(=N)N)NC(=O)[C@@H]1CCCN1C(=O)[C@H](CCCNC(=N)N)NC(=O)[C@@H]1CCCN1C(=O)[C@H](CCCNC(=N)N)NC(=O)[C@@H]1CCCN1C(=S)Nc1ccc2c(c1)C(=O)OC21c2ccc(O)cc2Oc2cc(O)ccc21)C(=O)O", "note": "[FITC-(PR)12] (HELM PEPTIDE1{[O=C1OC2(c3ccc(O)cc3Oc3cc(O)ccc32)c2ccc(NC(=S)[*:2])cc21].P.R.P.R.P.R.P.R.P.R.P.R.P.R.P.R.P.R.P.R.P.R.P.R}$$$$V2.0)", "values": [
      {"measurement": "entry into fixed/permeabilized cells", "setting": "HEK293 cells", "value": "entered the cells and accumulated to nucleoli"}
    ]},
    {"compound": "PRPRPRPRPRPRPRPRPRPRPRPRPRPRPRPRPRPRPRPR [(PR)20]", "values": [
      {"measurement": "cytotoxicity, LDH release", "setting": "NSC34 cells [1]", "value": "killed the cells; also recorded: exerted stronger cytotoxicity"},
      {"measurement": "cytotoxicity, Cytotox glo luminescence", "setting": "NSC34 cells [4]", "value": "killed the cells"},
      {"measurement": "penetration into NSC34 cells", "setting": "NSC34 cells [5]", "value": "entered NSC34 cells more efficiently"}
    ]},
    {"compound": "N=C(N)NCCC[C@H](NC(=O)CNC(=O)[C@H](CCCNC(=N)N)NC(=O)CNC(=O)[C@H](CCCNC(=N)N)NC(=O)CNC(=O)[C@H](CCCNC(=N)N)NC(=O)CNC(=O)[C@H](CCCNC(=N)N)NC(=O)CNC(=O)[C@H](CCCNC(=N)N)NC(=O)CNC(=O)[C@H](CCCNC(=N)N)NC(=O)CNC(=O)[C@H](CCCNC(=N)N)NC(=O)CNC(=O)[C@H](CCCNC(=N)N)NC(=O)CNC(=O)[C@H](CCCNC(=N)N)NC(=O)CNC(=O)[C@H](CCCNC(=N)N)NC(=O)CNC(=O)[C@H](CCCNC(=N)N)NC(=O)CNC(=O)[C@H](CCCNC(=N)N)NC(=O)CNC(=O)[C@H](CCCNC(=N)N)NC(=O)CNC(=O)[C@H](CCCNC(=N)N)NC(=O)CNC(=O)[C@H](CCCNC(=N)N)NC(=O)CNC(=O)[C@H](CCCNC(=N)N)NC(=O)CNC(=O)[C@H](CCCNC(=N)N)NC(=O)CNC(=O)[C@H](CCCNC(=N)N)NC(=O)CNC(=O)[C@H](CCCNC(=N)N)NC(=O)CN)C(=O)O", "note": "[(GR)20]", "values": [
      {"measurement": "penetration into NSC34 cells", "setting": "NSC34 cells [5]", "value": "also entered the cells as well"}
    ]},
    {"compound": "N=C(N)NCCC[C@H](NC(=O)[C@H](CCCNC(=N)N)NC(=O)[C@H](CCCNC(=N)N)NC(=O)[C@H](CCCNC(=N)N)NC(=O)[C@H](CCCNC(=N)N)NC(=O)[C@H](CCCNC(=N)N)NC(=O)[C@H](CCCNC(=N)N)NC(=O)[C@H](CCCNC(=N)N)NC(=O)[C@H](CCCNC(=N)N)NC(=O)[C@H](CCCNC(=N)N)NC(=O)[C@H](CCCNC(=N)N)NC(=O)[C@H](CCCNC(=N)N)NC(=S)Nc1ccc2c(c1)C(=O)OC21c2ccc(O)cc2Oc2cc(O)ccc21)C(=O)O", "note": "[FITC-R12]", "values": [
      {"measurement": "effect of extracellular pH on distribution of peptide into cells", "setting": "Hela cells", "value": "higher pH increased the distribution of FITC-labeled CPPs into the cells"}
    ]},
    {"compound": "amyloid β: amyloid β (40 a.a.), negative control peptide, from Peptide Institute", "values": [
      {"measurement": "inhibition of protein translation in vitro (tGFP fluorescence)", "setting": "[6]", "value": "did not see inhibitory effect"}
    ]},
    {"compound": "N=C(N)NCCC[C@H](NC(=O)[C@@H]1CCCN1C(=O)[C@H](CCCNC(=N)N)NC(=O)[C@@H]1CCCN1C(=O)[C@H](CCCNC(=N)N)NC(=O)[C@@H]1CCCN1C(=O)[C@H](CCCNC(=N)N)NC(=O)[C@@H]1CCCN1C(=O)[C@H](CCCNC(=N)N)NC(=O)[C@@H]1CCCN1C(=O)[C@H](CCCNC(=N)N)NC(=O)[C@@H]1CCCN1C(=O)[C@H](CCCNC(=N)N)NC(=O)[C@@H]1CCCN1C(=O)[C@H](CCCNC(=N)N)NC(=O)[C@@H]1CCCN1C(=O)[C@H](CCCNC(=N)N)NC(=O)[C@@H]1CCCN1C(=O)[C@H](CCCNC(=N)N)NC(=O)[C@@H]1CCCN1C(=O)[C@H](CCCNC(=N)N)NC(=O)[C@@H]1CCCN1C(=O)[C@H](CCCNC(=N)N)NC(=O)[C@@H]1CCCN1C(=O)[C@H](CCCNC(=N)N)NC(=O)[C@@H]1CCCN1C(=O)[C@H](CCCNC(=N)N)NC(=O)[C@@H]1CCCN1C(=O)[C@H](CCCNC(=N)N)NC(=O)[C@@H]1CCCN1C(=O)[C@H](CCCNC(=N)N)NC(=O)[C@@H]1CCCN1C(=O)[C@H](CCCNC(=N)N)NC(=O)[C@@H]1CCCN1C(=O)[C@H](CCCNC(=N)N)NC(=O)[C@@H]1CCCN1C(=O)[C@H](CCCNC(=N)N)NC(=O)[C@@H]1CCCN1C(=O)[C@H](CCCNC(=N)N)NC(=O)[C@@H]1CCCN1C(=S)Nc1ccc2c(c1)C(=O)OC21c2ccc(O)cc2Oc2cc(O)ccc21)C(=O)O", "note": "[FITC-(PR)20] (HELM PEPTIDE1{[O=C1OC2(c3ccc(O)cc3Oc3cc(O)ccc32)c2ccc(NC(=S)[*:2])cc21].P.R.P.R.P.R.P.R.P.R.P.R.P.R.P.R.P.R.P.R.P.R.P.R.P.R.P.R.P.R.P.R.P.R.P.R.P.R.P.R}$$$$V2.0)", "values": [
      {"measurement": "entry into fixed/permeabilized cells", "setting": "HEK293 cells", "value": "entered the cells and accumulated to nucleoli"},
      {"measurement": "penetration of the plasma membrane of live cells", "setting": "HEK293 cells; live HEK293 cells, 10 μM FITC-peptide added to culture medium", "value": "penetrated the plasma membrane and accumulated to nucleoli"}
    ]}
  ]
}
